Assay results published in PubChem BioAssay AID248 (DTP/NCI, 2004).
Where “and” joins values, the source holds several entries; their conditions need not be identical. Identical values can stand only once. Inconclusive results and toxic doses are left out.

Tested on: L1210 leukemia ip in BDF1 mice, survival T/C
Assay: NCI In Vivo Anticancer Drug Screen. Data for tumor model L1210 Leukemia (intraperitoneal) in B6D2F1 (BDF1) mice
Conditions: endpoint: mean survival time, higher = longer survival
In short: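 Ratio derived from survival: compound-dosed mice over vehicle-dosed mice, all bearing a transplantable tumor.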

[1] = dose: 100.0 mg/kg/injection, schedule: Q01DX001 (ip), vehicle: carboxymethylcellulose (CMC)
[2] = dose: 200.0 mg/kg/injection, schedule: Q01DX001 (ip), vehicle: carboxymethylcellulose (CMC)
[3] = dose: 400.0 mg/kg/injection, schedule: Q01DX001 (ip), vehicle: carboxymethylcellulose (CMC)

For `CC1CN1CC(O)C(O)CN1CC1C` (configuration not stated), the T/C (dose: 0.07 mg/kg/injection, schedule: Q01DX Z (ip), vehicle: saline) was 101 % of control, the T/C (dose: 0.07 mg/kg/injection, schedule: Q01DX Z (ip), vehicle: water) was 108 % of control and the T/C (dose: 0.1 mg/kg/injection, schedule: Q01DX Z (ip), vehicle: saline) was 106 % of control. The T/C (dose: 0.1 mg/kg/injection, schedule: Q01DX Z (ip), vehicle: water) was 110 % of control, the T/C (dose: 0.15 mg/kg/injection, schedule: Q01DX Z (ip), vehicle: saline) was 106 % of control and 110 % of control and the T/C (dose: 0.15 mg/kg/injection, schedule: Q01DX Z (ip), vehicle: water) was 118 % of control. The T/C (dose: 0.22 mg/kg/injection, schedule: Q01DX Z (ip), vehicle: saline) was 104 % of control and 114 % of control, the T/C (dose: 0.22 mg/kg/injection, schedule: Q01DX Z (ip), vehicle: water) was 124 % of control and the T/C (dose: 0.26 mg/kg/injection, schedule: Q01DX009 (ip), vehicle: saline) was 160 % of control. The T/C (dose: 0.26 mg/kg/injection, schedule: Q04DX003 (ip), vehicle: saline) was 117 % of control, the T/C (dose: 0.31 mg/kg/injection, schedule: Q01DX001 (ip), vehicle: carboxymethylcellulose (CMC)) was 105 % of control and the T/C (dose: 0.33 mg/kg/injection, schedule: Q01DX015 (ip), vehicle: saline) was 165 % of control. For the same molecule, the T/C (dose: 0.33 mg/kg/injection, schedule: Q01DX Z (ip), vehicle: saline) was 121 % of control, the T/C (dose: 0.4 mg/kg/injection, schedule: Q01DX009 (ip), vehicle: saline) was 152 % of control and the T/C (dose: 0.5 mg/kg/injection, schedule: Q01DX001 (ip), vehicle: saline) was 108 % of control. The T/C (dose: 0.5 mg/kg/injection, schedule: Q01DX015 (ip), vehicle: saline) was 117 % of control, the T/C (dose: 0.6 mg/kg/injection, schedule: Q01DX015 (ip), vehicle: saline) was 163 % of control and the T/C (dose: 0.62 mg/kg/injection, schedule: Q01DX001 (ip), vehicle: carboxymethylcellulose (CMC)) was 121 % of control. The T/C (dose: 1.0 mg/kg/injection, schedule: Q01DX001 (ip), vehicle: saline) was 113 % of control, the T/C (dose: 1.0 mg/kg/injection, schedule: Q01DX015 (ip), vehicle: saline) was 153 % of control and 207 % of control and the T/C (dose: 1.25 mg/kg/injection, schedule: Q01DX001 (ip), vehicle: carboxymethylcellulose (CMC)) was 121 % of control. The T/C (dose: 1.4 mg/kg/injection, schedule: Q04DX003 (ip), vehicle: saline) was 153 % of control, the T/C (dose: 1.8 mg/kg/injection, schedule: Q01DX015 (ip), vehicle: saline) was 97 % of control and 116 % of control and the T/C (dose: 2.0 mg/kg/injection, schedule: Q01DX015 (ip), vehicle: saline) was 207 % of control and 221 % of control. The T/C (dose: 2.1 mg/kg/injection, schedule: Q04DX003 (ip), vehicle: saline) was 166 % of control, the T/C (dose: 2.5 mg/kg/injection, schedule: Q01DX001 (ip), vehicle: carboxymethylcellulose (CMC)) was 150 % of control and the T/C (dose: 2.5 mg/kg/injection, schedule: Q01DX001 (ip), vehicle: saline) was 152 % of control. For the same molecule, the T/C (dose: 3.0 mg/kg/injection, schedule: Q01DX001 (ip), vehicle: saline) was 102 % of control, the T/C (dose: 3.0 mg/kg/injection, schedule: Q01DX015 (ip), vehicle: saline) was 261 % of control and the T/C (dose: 3.3 mg/kg/injection, schedule: Q04DX003 (ip), vehicle: saline) was 160 % of control. The T/C (dose: 4.0 mg/kg/injection, schedule: Q01DX001 (ip), vehicle: saline) was 157 % of control, the T/C (dose: 4.0 mg/kg/injection, schedule: Q01DX015 (ip), vehicle: saline) was 166 % of control and the T/C (dose: 5.0 mg/kg/injection, schedule: Q01DX001 (ip), vehicle: carboxymethylcellulose (CMC)) was 152 % of control. For the same molecule, the T/C (dose: 5.0 mg/kg/injection, schedule: Q01DX001 (ip), vehicle: saline) was 158 % of control, the T/C (dose: 5.5 mg/kg/injection, schedule: Q01DX001 (ip), vehicle: saline) was 157 % of control and the T/C (dose: 7.5 mg/kg/injection, schedule: Q04DX003 (ip), vehicle: saline) was 95 % of control and 257 % of control. For the same molecule, the T/C (dose: 8.0 mg/kg/injection, schedule: Q01DX015 (ip), vehicle: saline) was 122 % of control and 86 % of control and 87 % of control, the T/C (dose: 10.0 mg/kg/injection, schedule: Q01DX001 (ip), vehicle: carboxymethylcellulose (CMC)) was 236 % of control and the T/C (dose: 10.0 mg/kg/injection, schedule: Q01DX001 (ip), vehicle: saline) was 210 % of control. For the same molecule, the T/C (dose: 11.0 mg/kg/injection, schedule: Q01DX001 (ip), vehicle: saline) was 247 % of control and 108 % of control and 116 % of control, the T/C (dose: 15.0 mg/kg/injection, schedule: Q01DX001 (ip), vehicle: saline) was 250 % of control and the T/C (dose: 20.0 mg/kg/injection, schedule: Q01DX001 (ip), vehicle: saline) was 91 % of control. The T/C (dose: 22.0 mg/kg/injection, schedule: Q01DX001 (ip), vehicle: saline) was 168 % of control, the T/C (dose: 25.0 mg/kg/injection, schedule: Q01DX001 (ip), vehicle: saline) was 120 % of control and the T/C (dose: 30.0 mg/kg/injection, schedule: Q01DX001 (ip), vehicle: saline) was 87 % of control. For the same molecule, the T/C (dose: 41.0 micrograms/kg/injection, schedule: Q01DX015 (ip), vehicle: saline) was 104 % of control, the T/C (dose: 50.0 micrograms/kg/injection, schedule: Q01DX009 (ip), vehicle: saline) was 101 % of control and the T/C (dose: 62.0 micrograms/kg/injection, schedule: Q01DX015 (ip), vehicle: saline) was 108 % of control. For the same molecule, the T/C (dose: 75.0 micrograms/kg/injection, schedule: Q01DX009 (ip), vehicle: saline) was 104 % of control, the T/C (dose: 113.0 micrograms/kg/injection, schedule: Q01DX009 (ip), vehicle: saline) was 110 % of control and the T/C (dose: 140.0 micrograms/kg/injection, schedule: Q01DX001 (ip), vehicle: saline) was 113 % of control. The T/C (dose: 210.0 micrograms/kg/injection, schedule: Q01DX001 (ip), vehicle: saline) was 120 % of control.
`Cn1ncc(=O)[nH]c1=O` was tested, and the T/C (dose: 50.0 mg/kg/injection, schedule: Q01DX009 (ip), vehicle: saline) was 100 % of control, the T/C (dose: 100.0 mg/kg/injection, schedule: Q01DX009 (ip), vehicle: saline) was 108 % of control and the T/C (dose: 200.0 mg/kg/injection, schedule: Q01DX009 (ip), vehicle: saline) was 103 % of control.
For `COc1cc(CC(=O)O)c(OC)cc1CC(=O)O`, the T/C (dose: 100.0 mg/kg/injection, schedule: Q01DX009 (ip), vehicle: saline with Tween-80) was 101 % of control, the T/C (dose: 100.0 mg/kg/injection, schedule: Q04DX003 (ip), vehicle: saline with Tween-80) was 93 % of control and the T/C (dose: 200.0 mg/kg/injection, schedule: Q01DX009 (ip), vehicle: saline with Tween-80) was 99 % of control. For the same molecule, the T/C (dose: 200.0 mg/kg/injection, schedule: Q04DX003 (ip), vehicle: saline with Tween-80) was 96 % of control, the T/C (dose: 400.0 mg/kg/injection, schedule: Q01DX009 (ip), vehicle: saline with Tween-80) was 94 % of control and the T/C (dose: 400.0 mg/kg/injection, schedule: Q04DX003 (ip), vehicle: saline with Tween-80) was 94 % of control.
`CN(N(P(N)(Cl)(c1ccccc1)c1ccccc1)P(N)(Cl)(c1ccccc1)c1ccccc1)P(N)(Cl)(c1ccccc1)c1ccccc1` was tested, and the T/C (dose: 100.0 mg/kg/injection, schedule: Q01DX001 (ip), vehicle: steriod suspending solution) was 113 % of control and the T/C (dose: 200.0 mg/kg/injection, schedule: Q01DX001 (ip), vehicle: steriod suspending solution) was 108 % of control.
In the case of `CC(=O)Oc1ccc(/C=C/c2ccncc2)cc1`, the T/C (dose: 100.0 mg/kg/injection, schedule: Q01DX009 (ip), vehicle: Klucel (hydroxypropylcellulose) (HPC)) is reported as 97 % of control, the T/C (dose: 200.0 mg/kg/injection, schedule: Q01DX009 (ip), vehicle: Klucel (hydroxypropylcellulose) (HPC)) is reported as 100 % of control and the T/C (dose: 400.0 mg/kg/injection, schedule: Q01DX009 (ip), vehicle: Klucel (hydroxypropylcellulose) (HPC)) is reported as 104 % of control.
For `O=C(C=C(C(F)(F)F)C(F)(F)F)c1ccc(Cl)c2ccccc12`, the T/C (dose: 12.5 mg/kg/injection, schedule: Q01DX009 (ip), vehicle: saline with Tween-80) was 94 % of control, the T/C (dose: 25.0 mg/kg/injection, schedule: Q01DX009 (ip), vehicle: saline with Tween-80) was 92 % of control and the T/C (dose: 25.0 mg/kg/injection, schedule: Q04DX003 (ip), vehicle: saline with Tween-80) was 107 % of control. The T/C (dose: 50.0 mg/kg/injection, schedule: Q04DX003 (ip), vehicle: saline with Tween-80) was 90 % of control.
With `CCCCNC(=NC)c1ccc(NC(=O)Nc2ccc(NC(=O)Nc3ccc(C(=NC)NCCCC)cc3)cc2)cc1` the T/C (dose: 2.0 mg/kg/injection, schedule: Q01DX Z (ip), vehicle: methylcellulose (MC)) was 103 % of control and the T/C (dose: 3.9 mg/kg/injection, schedule: Q01DX Z (ip), vehicle: methylcellulose (MC)) was 96 % of control.
In the case of `CN(C)S(=O)(=O)c1ccc(CC(=O)c2ccccc2)cc1`, the T/C [1] is reported as 115 % of control, the T/C [2] is reported as 98 % of control and the T/C [3] is reported as 96 % of control.
`CC(C)CC(=O)C=C(C(F)(F)F)C(F)(F)F` was tested, and the T/C (dose: 100.0 mg/kg/injection, schedule: Q01DX001 (ip), vehicle: saline with Tween-80) was 91 % of control, the T/C (dose: 200.0 mg/kg/injection, schedule: Q01DX001 (ip), vehicle: saline with Tween-80) was 96 % of control and the T/C (dose: 400.0 mg/kg/injection, schedule: Q01DX001 (ip), vehicle: saline with Tween-80) was 93 % of control.
In the case of `CCCCCCCCP(=O)(CCCCCCCC)CCCCCCCC`, the T/C (dose: 50.0 mg/kg/injection, schedule: Q01DX001 (ip), vehicle: carboxymethylcellulose (CMC)) is reported as 95 % of control, the T/C [1] is reported as 95 % of control and the T/C [2] is reported as 95 % of control. The T/C [3] was 101 % of control.
